Data set [1] is described as follows: AUC in fasted Beagle dog at 2 mg/kg, iv measured for 24 hrs by LC-MS analysis. It counts as ADME, organism-based, Canis lupus familiaris. Particulars: Beagle, in vivo.
The nature of data set [2]: Thermodynamic solubility of compound at pH 2. It is filed as physicochemical. Particulars: buffer, read-out: Therm_solubility.
The target of data set [3] is T1, Protein mono-ADP-ribosyltransferase TIPARP (Homo sapiens, UniProt Q7Z3E1).
T1 sequence (Q7Z3E1 whole entry): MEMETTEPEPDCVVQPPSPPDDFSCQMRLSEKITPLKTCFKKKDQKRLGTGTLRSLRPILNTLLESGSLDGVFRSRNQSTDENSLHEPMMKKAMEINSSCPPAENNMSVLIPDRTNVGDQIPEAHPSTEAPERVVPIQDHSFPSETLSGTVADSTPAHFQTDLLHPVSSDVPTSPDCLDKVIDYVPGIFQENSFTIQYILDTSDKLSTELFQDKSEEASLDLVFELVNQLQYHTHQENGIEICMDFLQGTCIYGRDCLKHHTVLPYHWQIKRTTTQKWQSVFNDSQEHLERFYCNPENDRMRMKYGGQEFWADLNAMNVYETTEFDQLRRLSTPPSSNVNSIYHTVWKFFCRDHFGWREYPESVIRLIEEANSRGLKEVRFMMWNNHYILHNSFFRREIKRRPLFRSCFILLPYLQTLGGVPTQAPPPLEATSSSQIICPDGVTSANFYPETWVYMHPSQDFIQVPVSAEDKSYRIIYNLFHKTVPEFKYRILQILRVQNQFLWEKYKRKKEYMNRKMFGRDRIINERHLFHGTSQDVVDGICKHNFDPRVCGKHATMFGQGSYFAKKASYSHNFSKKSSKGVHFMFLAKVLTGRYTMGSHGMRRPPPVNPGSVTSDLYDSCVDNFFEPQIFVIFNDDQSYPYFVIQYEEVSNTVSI
The experiment in a line: Inhibition of PARP7 (unknown origin) using histone as substrate incubated for 1 hr by chemiluminescence assay.

Data set [4] is described as follows: Passive permeability in MDCKII-MDR1 cells incubated for 2 hrs by LC-MS analysis. It counts as ADME, cell-based, Canis lupus familiaris. The following applies: dog, MDCK-MDR1, read-out: permeability.
A short description of data set [5]: Metabolic stability in mouse liver microsomes assessed as intrinsic clearance preincubated for 5 mins followed by NADPH addition measured for 1 hr by LC-MS analysis. It counts as ADME, Microsome. The following applies: time 65 min, read-out: CLH.
Data set [6] deals with Voltage-gated inwardly rectifying potassium channel KCNH2 (Homo sapiens, UniProt Q12809). The experiment in a line: Inhibition of hERG transfected in HEK293 cells at <10 uM by electrography. It is filed as toxicity, cell-based. Particulars: hek293, 10 µM.
Another data set concerns MDA-MB-436. In words: Antiproliferative activity against human MDA-MB-436 cells assessed as inhibition of cell viability at 0.1 uM incubated for 7 days by luminescence based assay. It is filed as functional. Particulars: time 7.0 day.
In the next data set the target is Cytochrome P450 2D6 (Homo sapiens, UniProt P10635). In words: Inhibition of CYP2D6 in human liver microsomes using dextromethorphan as substrate preincubated for 10 mins followed by substrate addition measured for 30 mins by LC-MS analysis. It is filed as ADME, Microsome.
A further data set concerns the target T2, Cytochrome P450 1A2 (Homo sapiens, UniProt P05177).
T2 sequence (P05177 whole entry): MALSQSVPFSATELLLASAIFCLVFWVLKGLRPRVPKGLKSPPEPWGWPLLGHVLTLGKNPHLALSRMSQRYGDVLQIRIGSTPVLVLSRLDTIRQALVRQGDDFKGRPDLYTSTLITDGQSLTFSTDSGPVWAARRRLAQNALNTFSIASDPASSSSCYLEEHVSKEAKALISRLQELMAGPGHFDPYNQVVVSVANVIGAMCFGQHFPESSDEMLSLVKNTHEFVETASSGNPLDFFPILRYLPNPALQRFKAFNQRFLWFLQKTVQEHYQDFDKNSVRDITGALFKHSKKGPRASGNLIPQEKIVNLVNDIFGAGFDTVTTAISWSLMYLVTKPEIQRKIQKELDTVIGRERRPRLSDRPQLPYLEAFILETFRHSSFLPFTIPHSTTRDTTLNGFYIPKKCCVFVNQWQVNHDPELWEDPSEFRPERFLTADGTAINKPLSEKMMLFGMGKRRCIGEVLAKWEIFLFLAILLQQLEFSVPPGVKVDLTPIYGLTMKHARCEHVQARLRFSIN
In words: Inhibition of CYP1A2 in human liver microsomes using phenacetin as substrate preincubated for 10 mins followed by substrate addition measured for 30 mins by LC-MS analysis. It counts as ADME, Microsome.

Data set [7] deals with Poly [ADP-ribose] polymerase 2 (Homo sapiens, UniProt Q9UGN5). The experiment in a line: Inhibition of PARP2 (unknown origin).
Data set [8] is described as follows: Half life in fasted Beagle dog at 2 mg/kg, iv measured for 24 hrs by LC-MS analysis. It is filed as ADME, organism-based, Canis lupus familiaris. The following applies: in vivo.
Data set [9] is described as follows: Plasma protein binding in mouse at 2 uM incubated for 1 hr by LC/MS analysis. It counts as ADME, cell-free. Particulars: read-out: PPB (converted).
Data set [10] can be described thus: AUC in fasted Beagle dog at 10 mg/kg, po measured for 24 hrs by LC-MS analysis. The following applies: in vivo. It counts as ADME, organism-based, Canis lupus familiaris.
Data set [11] in a line: Toxicity in […] SCID mouse model xenografted with human NCI-H1373 cells assessed as animal death at 30 mg/kg, po measured for 21 days. It counts as organism-based. The following applies: in vivo, 504 h, time 21 day.
Data set [12] in a line: Thermodynamic solubility of compound at pH 7.4. The following applies: buffer, read-out: Therm_solubility. It counts as physicochemical.
In the next data set the test system is NCI-H1373. In words: Antitumor activity against human NCI-H1373 cells xenografted in […] SCID mouse model assessed as tumor growth inhibition at 30 mg/kg, po administered everyday measured after 21 days relative to control. It counts as functional. Particulars: NCI-H1373, 504 h, time 21 day, read-out: TGI.
The nature of data set [13]: Volume of distribution at steady state in fasted Beagle dog at 2 mg/kg, iv measured for 24 hrs by LC-MS analysis. It counts as ADME, organism-based, Canis lupus familiaris. Particulars: in vivo, read-out: Vdss.
The target in data set [14] is T3, Protein mono-ADP-ribosyltransferase PARP11 (Homo sapiens, UniProt Q9NR21).
T3 sequence (Q9NR21 whole entry): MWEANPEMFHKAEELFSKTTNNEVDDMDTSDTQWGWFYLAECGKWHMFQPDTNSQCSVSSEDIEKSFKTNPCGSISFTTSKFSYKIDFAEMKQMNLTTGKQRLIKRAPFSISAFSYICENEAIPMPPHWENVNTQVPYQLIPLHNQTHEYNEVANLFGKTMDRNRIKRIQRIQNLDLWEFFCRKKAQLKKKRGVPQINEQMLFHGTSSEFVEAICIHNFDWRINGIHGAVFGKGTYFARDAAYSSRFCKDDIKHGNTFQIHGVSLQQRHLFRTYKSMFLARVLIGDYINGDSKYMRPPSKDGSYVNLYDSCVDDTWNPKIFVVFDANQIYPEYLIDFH
The experiment in a line: Inhibition of PARP11 (unknown origin).

The nature of data set [15]: Clearance in fasted ICR mouse at 2 mg/kg, iv measured for 24 hrs by LC-MS analysis. It is filed as ADME, organism-based. The following applies: in vivo.
A short description of data set [16]: Oral bioavailability in fasted ICR mouse at 10 mg/kg measured for 24 hrs by LC-MS analysis. It counts as ADME, organism-based. Particulars: in vivo.
Data set [17] can be described thus: Oral bioavailability in fasted Beagle dog at 10 mg/kg measured for 24 hrs by LC-MS analysis. Particulars: in vivo. It is filed as ADME, organism-based, Canis lupus familiaris.

Converted amounts (≈) assume the structure as drawn. The source made the active and inactive calls. No cut-off for these calls is given here.

Voltage-gated inwardly rectifying potassium channel KCNH2, sequence (Q12809 whole entry): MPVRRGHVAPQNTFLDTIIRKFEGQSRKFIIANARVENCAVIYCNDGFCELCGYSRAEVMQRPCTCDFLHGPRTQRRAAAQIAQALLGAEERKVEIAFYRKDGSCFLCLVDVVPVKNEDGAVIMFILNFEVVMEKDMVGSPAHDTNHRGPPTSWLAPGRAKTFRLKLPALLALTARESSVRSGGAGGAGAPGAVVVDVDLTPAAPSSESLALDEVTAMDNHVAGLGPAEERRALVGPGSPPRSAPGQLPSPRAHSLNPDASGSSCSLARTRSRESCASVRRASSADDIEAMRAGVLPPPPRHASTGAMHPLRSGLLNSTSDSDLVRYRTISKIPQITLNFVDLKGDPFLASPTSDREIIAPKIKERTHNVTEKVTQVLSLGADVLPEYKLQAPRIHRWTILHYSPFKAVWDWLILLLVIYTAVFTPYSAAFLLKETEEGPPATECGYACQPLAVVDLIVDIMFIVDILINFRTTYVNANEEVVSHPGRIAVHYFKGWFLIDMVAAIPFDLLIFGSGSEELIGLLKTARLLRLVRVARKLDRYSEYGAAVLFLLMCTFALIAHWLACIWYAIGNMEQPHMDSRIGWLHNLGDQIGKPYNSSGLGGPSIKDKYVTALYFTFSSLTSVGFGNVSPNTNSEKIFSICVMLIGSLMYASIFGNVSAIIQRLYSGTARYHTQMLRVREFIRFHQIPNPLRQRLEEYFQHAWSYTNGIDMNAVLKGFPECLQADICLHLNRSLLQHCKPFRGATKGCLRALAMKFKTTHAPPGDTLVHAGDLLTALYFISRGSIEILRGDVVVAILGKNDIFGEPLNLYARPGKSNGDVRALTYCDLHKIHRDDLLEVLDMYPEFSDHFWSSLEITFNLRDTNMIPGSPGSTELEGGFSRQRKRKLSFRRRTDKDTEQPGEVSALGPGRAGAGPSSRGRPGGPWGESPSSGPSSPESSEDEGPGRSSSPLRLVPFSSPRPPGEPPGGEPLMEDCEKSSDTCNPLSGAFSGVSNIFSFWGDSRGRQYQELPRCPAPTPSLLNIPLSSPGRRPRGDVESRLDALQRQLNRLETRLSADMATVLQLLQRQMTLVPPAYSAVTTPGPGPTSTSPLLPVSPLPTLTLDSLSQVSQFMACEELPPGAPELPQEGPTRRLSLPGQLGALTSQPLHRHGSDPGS
Poly [ADP-ribose] polymerase 2, sequence (Q9UGN5 whole entry): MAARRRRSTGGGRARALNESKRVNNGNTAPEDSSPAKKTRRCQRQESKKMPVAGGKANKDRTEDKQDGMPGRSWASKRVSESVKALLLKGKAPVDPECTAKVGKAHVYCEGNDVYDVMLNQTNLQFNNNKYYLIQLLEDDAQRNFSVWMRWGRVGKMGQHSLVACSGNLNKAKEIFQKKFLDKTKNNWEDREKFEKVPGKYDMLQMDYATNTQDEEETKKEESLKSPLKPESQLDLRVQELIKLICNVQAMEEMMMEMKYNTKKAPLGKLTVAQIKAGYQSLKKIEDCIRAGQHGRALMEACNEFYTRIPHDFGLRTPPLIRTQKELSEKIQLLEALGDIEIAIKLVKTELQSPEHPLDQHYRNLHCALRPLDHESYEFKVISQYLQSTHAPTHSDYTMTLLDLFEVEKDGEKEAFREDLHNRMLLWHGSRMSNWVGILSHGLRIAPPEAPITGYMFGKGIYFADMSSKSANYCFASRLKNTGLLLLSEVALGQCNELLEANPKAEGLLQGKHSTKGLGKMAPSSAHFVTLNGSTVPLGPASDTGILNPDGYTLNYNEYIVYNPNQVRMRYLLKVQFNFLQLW
Cytochrome P450 2D6, sequence (P10635 whole entry): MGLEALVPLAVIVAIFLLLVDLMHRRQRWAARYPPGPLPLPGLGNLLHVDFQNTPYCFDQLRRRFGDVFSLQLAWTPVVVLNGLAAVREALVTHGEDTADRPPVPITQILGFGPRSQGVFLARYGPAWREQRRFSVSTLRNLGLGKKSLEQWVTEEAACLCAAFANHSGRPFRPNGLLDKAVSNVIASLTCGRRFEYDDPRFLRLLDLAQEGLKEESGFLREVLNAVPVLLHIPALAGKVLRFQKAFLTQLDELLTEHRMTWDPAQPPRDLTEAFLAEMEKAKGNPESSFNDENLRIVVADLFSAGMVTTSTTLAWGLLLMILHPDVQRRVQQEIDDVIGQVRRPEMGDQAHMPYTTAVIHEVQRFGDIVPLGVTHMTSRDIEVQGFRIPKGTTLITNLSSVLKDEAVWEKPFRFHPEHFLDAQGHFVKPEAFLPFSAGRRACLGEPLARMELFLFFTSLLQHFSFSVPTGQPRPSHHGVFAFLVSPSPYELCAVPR

In the case of `O=C(CCOC[C@@H]1CCN1c1cn[nH]c(=O)c1C(F)(F)F)N1CCN2c3ncc(C(F)(F)F)cc3OC[C@@H]2C1`, the AUC at 24 h in [1] was 3480 ng·h/mL. The values for the solubility thermodynamic in [2] and in data set [12] were 601 µg/mL (≈ 1070 µM) and 114 µg/mL (≈ 203 µM), respectively. For the same compound, the IC50 is 0.00056 µM in [3]; above 30 µM on Cytochrome P450 2D6; above 30 µM against Cytochrome P450 1A2; 0.221 µM in data set [7]; above 1 µM in data set [14]. In addition, the Papp at 2 h in data set [4] amounted to 0.852 ×10⁻⁶ cm/s. Further, the CLint scaled in [5] amounted to 141 mL/min/kg. In addition, the “inhibition (INH)” value in data set [6] is listed as “Not Active”. In the data set on MDA-MB-436, the outcome was inactive. In [8], the half-life is 1.3 h. For the same compound, in data set [9], the fraction unbound at 1 h, 2 µM is 0.019. In addition, the AUC in data set [10] amounted to 7860 ng·h/mL. Besides, in data set [11], the Activity entry is on record as “Non-Toxic”. Further, the inhibition in vivo at 30 mg/kg in the data set with NCI-H1373 was 75.2%. The Vd in data set [13] worked out at 0.948 L/kg. Also, the clearance in data set [15] was 49.2 mL/min/kg. Besides, the bioavailability in data set [16] came to 33.9%; in data set [17], 45.2%.

These data come from ChEMBL document CHEMBL5634130, “Exploring the structural-activity relationship of hexahydropyrazino[1,2-d]pyrido[3,2-b][1,4]oxazine derivatives as potent and orally-bioavailable PARP7 inhibitors” (Eur J Med Chem, 2023).
